Experimental data published in ChEMBL document CHEMBL2150993, “Substituted thiazoles VII. Synthesis and antitumor activity of certain 2-(substituted amino)-4-phenyl-1,3-thiazole analogs” (2012).
The source made the active and inactive calls. The calls are words filed in the database; no cut-off is given here.

Tests used:
Assay type in all cases: functional
NCI-H226 = test: Growth inhibition of human NCI-H226 cells after 48 hrs by cell counting analysis; settings: at 10 µM
HOP-62 = test: Growth inhibition of human HOP62 cells after 48 hrs by cell counting analysis; settings: at 10 µM
T47D = test: Growth inhibition of human T47D cells after 48 hrs by cell counting analysis; settings: at 10 µM
MDA-MB-468 = test: Growth inhibition of human MDA-MB-468 cells after 48 hrs by cell counting analysis
PC-3 = test: Growth inhibition of human PC3 cells after 48 hrs by cell counting analysis; settings: at 10 µM
[1] = Antiproliferative activity against human colon cancer cells after 48 hrs by cell counting analysis; settings: Cancer cell lines
UACC-257 = test: Growth inhibition of human UACC257 cells after 48 hrs by cell counting analysis; settings: at 10 µM
OVCAR-8 = test: Growth inhibition of human OVCAR8 cells after 48 hrs by cell counting analysis; settings: at 10 µM
SF-295 = test: Growth inhibition of human SF295 cells after 48 hrs by cell counting analysis; settings: at 10 µM
MCF7 = test: Growth inhibition of human MCF7 cells after 48 hrs by cell counting analysis; settings: at 10 µM
K562 = test: Growth inhibition of human K562 cells after 48 hrs by cell counting analysis; settings: at 10 µM
RXF 393 = test: Growth inhibition of human RXF393 cells after 48 hrs by cell counting analysis
NCI-H522 = test: Growth inhibition of human NCI-H522 cells after 48 hrs by cell counting analysis; settings: at 10 µM
MOLT-4 = test: Growth inhibition of human MOLT4 cells after 48 hrs by cell counting analysis; settings: at 10 µM
HCT-116 = test: Growth inhibition of human HCT116 cells after 48 hrs by cell counting analysis; settings: at 10 µM
SK-OV-3 = test: Growth inhibition of human SKOV3 cells after 48 hrs by cell counting analysis; settings: at 10 µM
[2] = Antiproliferative activity against human non-small cell lung cancer cells after 48 hrs by cell counting analysis; settings: Cancer cell lines
MDA-MB-231 = test: Growth inhibition of human MDA-MB-231 cells after 48 hrs by cell counting analysis; settings: at 10 µM
RPMI-8226 = test: Growth inhibition of human RPMI8226 cells after 48 hrs by cell counting analysis; settings: at 10 µM
M14 = test: Growth inhibition of human M14 cells after 48 hrs by cell counting analysis; settings: at 10 µM
A549 = test: Growth inhibition of human A549 cells after 48 hrs by cell counting analysis; settings: at 10 µM
[3] = Antiproliferative activity against human CNS cancer cells after 48 hrs by cell counting analysis; settings: Cancer cell lines
MDA-MB-435 = test: Growth inhibition of human MDA-MB-435 cells after 48 hrs by cell counting analysis; settings: at 10 µM
KM12 = test: Growth inhibition of human KM12 cells after 48 hrs by cell counting analysis; settings: at 10 µM
CCRF-CEM = test: Growth inhibition of human CCRF-CEM cells after 48 hrs by cell counting analysis; settings: at 10 µM
OVCAR-5 = test: Growth inhibition of human OVCAR5 cells after 48 hrs by cell counting analysis; settings: at 10 µM
[4] = Antiproliferative activity against human melanoma cells after 48 hrs by cell counting analysis
IGROV-1 = test: Growth inhibition of human IGROV1 cells after 48 hrs by cell counting analysis; settings: at 10 µM
CAKI-1 = test: Growth inhibition of human Caki1 cells after 48 hrs by cell counting analysis; settings: at 10 µM
SR = test: Growth inhibition of human SR cells after 48 hrs by cell counting analysis; settings: at 10 µM
UO-31 = test: Growth inhibition of human UO31 cells after 48 hrs by cell counting analysis; settings: at 10 µM
SK-MEL-5 = test: Growth inhibition of human SK-MEL-5 cells after 48 hrs by cell counting analysis; settings: at 10 µM
HOP-92 = test: Growth inhibition of human HOP92 cells after 48 hrs by cell counting analysis
BT-549 = test: Growth inhibition of human BT549 cells after 48 hrs by cell counting analysis; settings: at 10 µM
TK-10 = test: Growth inhibition of human TK10 cells after 48 hrs by cell counting analysis; settings: at 10 µM
[5] = Growth inhibition of human NCI-ADR-RES cells after 48 hrs by cell counting analysis; settings: at 10 µM
HCT-15 = test: Growth inhibition of human HCT15 cells after 48 hrs by cell counting analysis; settings: at 10 µM
[6] = Antiproliferative activity against human breast cancer cells after 48 hrs by cell counting analysis; settings: Cancer cell lines
[7] = Antiproliferative activity against human leukemia cells after 48 hrs by cell counting analysis
[8] = Antiproliferative activity against human ovarian cancer cells after 48 hrs by cell counting analysis; settings: Cancer cell lines
SN12C = test: Growth inhibition of human SN12C cells after 48 hrs by cell counting analysis; settings: at 10 µM
OVCAR-4 = test: Growth inhibition of human OVCAR4 cells after 48 hrs by cell counting analysis; settings: at 10 µM
ACHN = test: Growth inhibition of human ACHN cells after 48 hrs by cell counting analysis; settings: at 10 µM
HCC 2998 = test: Growth inhibition of human HCC2998 cells after 48 hrs by cell counting analysis; settings: at 10 µM
SF-268 = test: Growth inhibition of human SF268 cells after 48 hrs by cell counting analysis; settings: at 10 µM
EKVX = test: Growth inhibition of human EKVX cells after 48 hrs by cell counting analysis; settings: at 10 µM
LOX IMVI = test: Growth inhibition of human LOXIMVI cells after 48 hrs by cell counting analysis; settings: at 10 µM
NCI-H23 = test: Growth inhibition of human NCI-H23 cells after 48 hrs by cell counting analysis; settings: at 10 µM
SNB-19 = test: Growth inhibition of human SNB19 cells after 48 hrs by cell counting analysis; settings: at 10 µM
SW-620 = test: Growth inhibition of human SW620 cells after 48 hrs by cell counting analysis; settings: at 10 µM
[9] = Growth inhibition of human NCI-322M cells after 48 hrs by cell counting analysis; settings: at 10 µM
[10] = Antiproliferative activity against human prostate cancer cells after 48 hrs by cell counting analysis; settings: Cancer cell lines
SNB-75 = test: Growth inhibition of human SNB75 cells after 48 hrs by cell counting analysis; settings: at 10 µM
HT-29 = test: Growth inhibition of human HT-29 cells after 48 hrs by cell counting analysis; settings: at 10 µM
SK-MEL-2 = test: Growth inhibition of human SK-MEL-2 cells after 48 hrs by cell counting analysis; settings: at 10 µM
U-251 = test: Growth inhibition of human U251 cells after 48 hrs by cell counting analysis; settings: at 10 µM
[11] = Antiproliferative activity against human renal cancer cells after 48 hrs by cell counting analysis; settings: Cancer cell lines
OVCAR-3 = test: Growth inhibition of human OVCAR3 cells after 48 hrs by cell counting analysis; settings: at 10 µM
SF-539 = test: Growth inhibition of human SF539 cells after 48 hrs by cell counting analysis; settings: at 10 µM
SK-MEL-28 = test: Growth inhibition of human SK-MEL-28 cells after 48 hrs by cell counting analysis; settings: at 10 µM
Malme-3M = test: Growth inhibition of human MALME-3M cells after 48 hrs by cell counting analysis; settings: at 10 µM
UACC-62 = test: Growth inhibition of human UACC62 cells after 48 hrs by cell counting analysis; settings: at 10 µM
HL-60 = test: Growth inhibition of human HL60 cells after 48 hrs by cell counting analysis; settings: at 10 µM
[12] = read-out: LC50 (the source's name)

## O=C(CCCl)Nc1nc(-c2ccc(Cl)cc2)cs1
NCI-H226
  growth inhibition (GI): 51%
HOP-62
  growth inhibition (GI): 49%
T47D
  growth inhibition (GI): 52.1%
MDA-MB-468
  growth inhibition (GI): Active
PC-3
  growth inhibition (GI): 59.7%
[1]
  GI50: 3.9 µM
  TGI: 13.5 µM
[1]; [12]
  CC50: 44 µM
UACC-257
  growth inhibition (GI): 43%
OVCAR-8
  growth inhibition (GI): 52.8%
SF-295
  growth inhibition (GI): 29.8%
MCF7
  growth inhibition (GI): 55.8%
K562
  growth inhibition (GI): 63%
RXF 393
  growth inhibition (GI): Active
NCI-H522
  growth inhibition (GI): 95.6%
MOLT-4
  growth inhibition (GI): 61.3%
HCT-116
  growth inhibition (GI): 79.3%
SK-OV-3
  growth inhibition (GI): 25.7%
[2]
  GI50: 6.1 µM
  TGI: 19 µM
[2]; [12]
  CC50: 51.5 µM
MDA-MB-231
  growth inhibition (GI): 44.6%
RPMI-8226
  growth inhibition (GI): 92.8%
M14
  growth inhibition (GI): 44.7%
A549
  growth inhibition (GI): 39.9%
[3]
  GI50: 3.1 µM
  TGI: 14.7 µM
[3]; [12]
  CC50: 50.9 µM
MDA-MB-435
  growth inhibition (GI): 68.1%
KM12
  growth inhibition (GI): 43.8%
CCRF-CEM
  growth inhibition (GI): 88.3%
OVCAR-5
  growth inhibition (GI): 35.7%
[4]
  GI50: 3.2 µM
  TGI: 13.1 µM
[4]; [12]
  CC50: 47.6 µM
IGROV-1
  growth inhibition (GI): 48.9%
CAKI-1
  growth inhibition (GI): 52.5%
SR
  growth inhibition (GI): 77.7%
UO-31
  growth inhibition (GI): 70.1%
SK-MEL-5
  growth inhibition (GI): 46.8%
HOP-92
  growth inhibition (GI): Active
BT-549
  growth inhibition (GI): 89.9%
TK-10
  growth inhibition (GI): <10%
[5]
  growth inhibition (GI): 51.2%
HCT-15
  growth inhibition (GI): 61.4%
[6]
  GI50: 2400 nM
  TGI: 8.8 µM
[6]; [12]
  CC50: 55.9 µM
[7]
  GI50: 2200 nM
  TGI: 8.9 µM
[7]; [12]
  CC50: 90.2 µM
[8]
  GI50: 4.1 µM
  TGI: 21.8 µM
[8]; [12]
  CC50: 67 µM
SN12C
  growth inhibition (GI): 48.3%
OVCAR-4
  growth inhibition (GI): 16.4%
ACHN
  growth inhibition (GI): 39.2%
HCC 2998
  growth inhibition (GI): 15.8%
SF-268
  growth inhibition (GI): 51.7%
EKVX
  growth inhibition (GI): 29.6%
LOX IMVI
  growth inhibition (GI): 43.1%
NCI-H23
  growth inhibition (GI): 29%
SNB-19
  growth inhibition (GI): 26.2%
SW-620
  growth inhibition (GI): 76%
[9]
  growth inhibition (GI): 16.9%
[10]
  GI50: 2800 nM
  TGI: 13.8 µM
[10]; [12]
  CC50: 42.2 µM
SNB-75
  growth inhibition (GI): 58.8%
HT-29
  growth inhibition (GI): 78%
SK-MEL-2
  growth inhibition (GI): 72.7%
U-251
  growth inhibition (GI): 55.4%
[11]
  GI50: 1700 nM
  TGI: 7.9 µM
[11]; [12]
  CC50: 32.1 µM
OVCAR-3
  growth inhibition (GI): 89.8%
SF-539
  growth inhibition (GI): 94.6%
SK-MEL-28
  growth inhibition (GI): 21.2%
Malme-3M
  growth inhibition (GI): 44%
UACC-62
  growth inhibition (GI): 38.7%
HL-60
  growth inhibition (GI): 28.5%
